Measurements as given in patent US20110034507A1, “FARNESOID X RECEPTOR AGONISTS” (SMITHKLINE BEECHAM CORPORATION, priority 2007, published 2011).

Target: T1, Human FXRα Ligand Binding Domain (Homo sapiens, UniProt Q96RI1)
T1 construct: polyhistidine (pRSET-A vector leader) (N); made in house; host or cells: E. coli BL21 (DE3), pRSET-A vector
T1 sequence (Q96RI1 237-472 isoform Q96RI1-2): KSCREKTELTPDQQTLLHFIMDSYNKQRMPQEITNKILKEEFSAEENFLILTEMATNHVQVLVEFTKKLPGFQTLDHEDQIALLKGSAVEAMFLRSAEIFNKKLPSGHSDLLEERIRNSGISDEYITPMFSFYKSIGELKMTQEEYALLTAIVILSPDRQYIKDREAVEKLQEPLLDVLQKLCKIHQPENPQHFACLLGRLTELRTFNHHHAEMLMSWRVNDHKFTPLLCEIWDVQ
Assay: FXR Cofactor Binding Assay (ligand mediated SRC-1 cofactor peptide interaction, time resolved fluorescence)
Assay type: biochemical
Conditions: FXRα LBD / SRC-1 (LCD2, 676-700) peptide, TRF; read-out: Activity (pEC50) (converted)
Description: Determination of a ligand mediated cofactor peptide interaction to quantify ligand binding to the nuclear receptor Farnesoid X Receptor (FXR). The method measures the ability of putative ligands to modulate the interaction between the purified bacterial expressed FXRα ligand binding domain (LBD) and a synthetic biotinylated peptide based on residues 676-700 of steroid receptor coactivator-1 (SRC-1) (LXXLL-containing domain-2 where L is the amino acid leucine and X indicates any other amino acid (LCD2), 676-700). The sequence of the SRC-1 peptide used is as published in Iannone, M. A., et al., 2001 Cytometry 44:326-337 where the N-terminus was biotinylated (B) and the C-terminus was amidated. Detection of the associated complex was measured by time resolved fluorescence (TRF). The purified LBD of FXR was labeled with biotin, then mixed with stoichiometric amounts of allophycocyanin (APC) labeled streptavidin (Molecular Probes). The biotinylated peptide was then mixed with a ½ stoichiometric amount of europium labeled streptavidin (Wallac Inc). Each was then blocked with a 5 fold excess of biotin and allowed to equilibrate for 15 min. Equimolar amounts of receptor and peptide were mixed together and were allowed to equilibrate for at least 30 min prior to the addition to either a variable or constant concentrations of the sample for which the affinity is to be determined. After equilibration, the time-resolved fluorescent signal was quantitated using a fluorescent plate reader. The affinity of the test compound was estimated from a plot of fluorescence versus concentration of test compound added.
Ligands that promote the complex formation induce a concentration-dependent increase in time-resolved fluorescent signal.
Human FXRα Ligand Binding Domain (FXRα LBD) was expressed in E. coli strain BL21 (DE3) as an amino-terminal polyhistidine tagged fusion protein. Expression was under the control of an isopropyl-β-D-thiogalactopyranoside (IPTG) inducible T7 promoter. DNA encoding this recombinant protein is subcloned into the pRSET-A expression vector (Invitrogen). The coding sequence of Human FXRα LBD was derived from Genbank accession number U 68233 (amino acids 237 to 472).
Ten-liter fermentation batches were grown in Rich PO4 media with 0.1 mg/mL Ampicillin at 25° C. for 12 hours, cooled to 9° C. and held at that temperature for 36 hours to a density of OD600=14. At this cell density, 0.25 mM IPTG is added and induction proceeded for 24 hours at 9° C., to a final OD600=16. Cells are harvested by centrifugation (20 minutes, 3500×gravity, 4° C.), and concentrated cell slurries were stored in phosphate buffered saline (PBS) at […].
Routinely, 30-40 g cell paste (equivalent to 2-3 liters of the fermentation batch) was resuspended in 200-250 mL Tris buffered saline (TBS), pH 7.2 (25 mM Tris-hydroxymethylamino methane (Tris), 150 mM sodium chloride). Cells were lysed by passing 3 times through a French Press and cell debris was removed by centrifugation (30 minutes, 20,000×gravity, 4° C.). The cleared supernatant was filtered through course pre-filters, and TBS, pH 7.2, 500 mM imidazole was added to obtain a final imidazole concentration of 50 mM. This lysate was loaded onto a column (6×8 cm) packed with Sepharose [Ni^++ charged] Chelation resin (Pharmacia) and pre-equilibrated with TBS pH 7.2/50 mM imidazole. After washing to baseline absorbance with equilibration buffer, the column was washed with one column volume of TBS pH 7.2 containing 90 mM imidazole. FXRα LBD was eluted directly with 365 mM imidazole. Column fractions were pooled and dialyzed against TBS, pH 7.2, containing 0.5 mM EDTA and 5 mM DTT. The dialyzed protein sample was concentrated using Centri-prep 10 K (Amicon) and subjected to size exclusion, using a column (3×90 cm) packed with Sepharose S-75 resin (Pharmacia) pre-equilibrated with TBS, pH 7.2, containing 0.5 mM ethylene diamine tetraacetic acid (EDTA) and 5 mM dithiothreitol (DTT).

Structure (SMILES) | EC50
CC(C)c1onc(-c2c(Cl)cccc2Cl)c1COc1ccc2cc(-c3ccc(CCC(=O)O)cc3)ccc2c1 [Example 23, 3-{4-[6-({[3-(2,6-Dichlorophenyl)-5-(1-methylethyl)-4-isoxazolyl]methyl}oxy)-2-naphthalenyl]phenyl}propanoic acid] | 102 to 1000 nM
CC(C)c1onc(-c2c(Cl)cccc2Cl)c1COc1ccc2cc(-c3ccc(C(=O)O)cn3)ccc2c1 [Example 24, 6-[6-({[3-(2,6-Dichlorophenyl)-5-(1-methylethyl)-4-isoxazolyl]methyl}oxy)-2-naphthalenyl]-3-pyridinecarboxylic acid] | 102 to 1000 nM
CC(C)c1onc(-c2c(Cl)cccc2Cl)c1COc1ccc2cc(-c3ccc(C(=O)O)s3)ccc2c1 [Example 25, 5-[6-({[3-(2,6-Dichlorophenyl)-5-(1-methylethyl)-4-isoxazolyl]methyl}oxy)-2-naphthalenyl]-2-thiophenecarboxylic acid] | 102 to 1000 nM
CC(C)c1onc(-c2c(Cl)cccc2Cl)c1COc1ccc2cc(-c3cccc(N(S(=O)(=O)C(F)(F)F)S(=O)(=O)C(F)(F)F)c3)ccc2c1 [Example 26, N-{3-[6-({[3-(2,6-Dichlorophenyl)-5-(1-methylethyl)-4-isoxazolyl]methyl}oxy)-2-naphthalenyl]phenyl}-1,1,1-trifluoro-N-[(trifluoromethyl)sulfonyl]methanesulfonamide] | 102 to 1000 nM
CC(=O)N(C(C)=O)c1cccc(-c2ccc3cc(OCc4c(-c5c(Cl)cccc5Cl)noc4C(C)C)ccc3c2)c1 [Example 27, N-acetyl-N-{3-[6-({[3-(2,6-dichlorophenyl)-5-(1-methylethyl)-4-isoxazolyl]methyl}oxy)-2-naphthalenyl]phenyl}acetamide] | 102 to 1000 nM
CC(C)c1onc(-c2c(Cl)cccc2Cl)c1COc1ccc2cc(-c3cccc(NS(=O)(=O)C(F)(F)F)c3)ccc2c1 [Example 28, N-{3-[6-({[3-(2,6-dichlorophenyl)-5-(1-methylethyl)-4-isoxazolyl]methyl}oxy)-2-naphthalenyl]phenyl}-1,1,1-trifluoromethanesulfonamide] | 102 to 1000 nM
CC(=O)Nc1cccc(-c2ccc3cc(OCc4c(-c5c(Cl)cccc5Cl)noc4C(C)C)ccc3c2)c1 [Example 29, N-{3-[6-({[3-(2,6-dichlorophenyl)-5-(1-methylethyl)-4-isoxazolyl]methyl}oxy)-2-naphthalenyl]phenyl}acetamide] | 102 to 1000 nM
CC(C)c1onc(-c2c(Cl)cccc2Cl)c1COc1ccc2cc(-c3cccc(OC(F)(F)F)c3)ccc2c1 [Example 30, 3-(2,6-Dichlorophenyl)-5-(1-methylethyl)-4-{[(6-{3-[(trifluoromethyl)oxy]phenyl}-2-naphthalenyl)oxy]methyl}isoxazole] | 102 to 1000 nM
CC(=O)Nc1ccc(-c2ccc3cc(OCc4c(-c5c(Cl)cccc5Cl)noc4C(C)C)ccc3c2)cc1 [Example 31, N-{4-[6-({[3-(2,6-dichlorophenyl)-5-(1-methylethyl)-4-isoxazolyl]methyl}oxy)-2-naphthalenyl]phenyl}acetamide] | 102 to 1000 nM

Now from value to compound:

EC50 | Structure (SMILES)
102 to 1000 nM | CC(C)c1onc(-c2c(Cl)cccc2Cl)c1COc1ccc2cc(-c3ccc(NS(=O)(=O)C(F)(F)F)cc3)ccc2c1 [Example 32, N-{4-[6-({[3-(2,6-dichlorophenyl)-5-(1-methylethyl)-4-isoxazolyl]methyl}oxy)-2-naphthalenyl]phenyl}-1,1,1-trifluoromethanesulfonamide]
102 to 1000 nM | CC(C)c1onc(-c2c(Cl)cccc2Cl)c1COc1ccc2ccc(-c3cccc(C(=O)O)c3)cc2c1 [Example 33, 3-[7-({[3-(2,6-Dichlorophenyl)-5-(1-methylethyl)-4-isoxazolyl]methyl}oxy)-2-naphthalenyl]benzoic acid]
102 to 1000 nM | CC(C)c1onc(-c2c(Cl)cccc2Cl)c1COc1ccc2cc(-c3ccc(Cl)c(C(=O)O)c3)ccc2c1 [Example 34, 2-Chloro-5-[6-({[3-(2,6-dichlorophenyl)-5-(1-methylethyl)-4-isoxazolyl]methyl}oxy)-2-naphthalenyl]benzoic acid]
102 to 1000 nM | CC(C)c1onc(-c2c(Cl)cccc2Cl)c1COc1ccc2cc(-c3ccc(F)c(C(=O)O)c3)ccc2c1 [Example 35, 5-[6-({[3-(2,6-Dichlorophenyl)-5-(1-methylethyl)-4-isoxazolyl]methyl}oxy)-2-naphthalenyl]-2-fluorobenzoic acid]
102 to 1000 nM | CC(C)c1onc(-c2c(Cl)cccc2Cl)c1COc1ccc2cc(-c3cccc(C(=O)O)c3)sc2c1 [Example 36, 3-[6-({[3-(2,6-Dichlorophenyl)-5-(1-methylethyl)-4-isoxazolyl]methyl}oxy)-1-benzothien-2-yl]benzoic acid]
102 to 1000 nM | CC(C)c1onc(-c2c(Cl)cccc2Cl)c1CNc1nc2ccc(-c3cccc(C(=O)O)c3)cc2s1 [Example 37, 3-[2-({[3-(2,6-Dichlorophenyl)-5-(1-methylethyl)-4-isoxazolyl]methyl}amino)-1,3-benzothiazol-6-yl]benzoic acid]
102 to 1000 nM | CC(C)c1onc(-c2c(Cl)cccc2Cl)c1COc1ccc2cc(-c3cccc(C(=O)O)c3)ccc2c1 [Example 38, 3-[6-({[3-(2,6-Dichlorophenyl)-5-(1-methylethyl)-4-isoxazolyl]methyl}oxy)-2-naphthalenyl]benzoic acid]
1020 to 10000 nM | CC(C)c1onc(-c2c(Cl)cccc2Cl)c1CCc1nc2cc(-c3cccc(C(=O)O)c3)ccc2o1 [Example 39, 3-(2-{2-[3-(2,6-dichlorophenyl)-5-(1-methylethyl)-4-isoxazolyl]ethyl}-1,3-benzoxazol-5-yl)benzoic acid]
102 to 1000 nM | CC(C)c1onc(-c2c(Cl)cccc2Cl)c1COc1ccc2c(Nc3cccc(C(=O)O)c3)cccc2c1 [Example 40, 3-{[6-({[3-(2,6-Dichlorophenyl)-5-(1-methylethyl)-4-isoxazolyl]methyl}oxy)-1-naphthalenyl]amino}benzoic acid]
1020 to 10000 nM | CC(C)c1onc(-c2c(Cl)cccc2Cl)c1CCc1nc2cccc(Nc3cccc(C(=O)O)c3)c2o1 [Example 41, 3-[(2-{2-[3-(2,6-Dichlorophenyl)-5-(1-methylethyl)-4-isoxazolyl]ethyl}-1,3-benzoxazol-7-yl)amino]benzoic acid]
1020 to 10000 nM | CC(C)c1onc(-c2c(Cl)cccc2Cl)c1COc1ccc2c(c1)ncn2Cc1cccc(C(=O)O)c1 [Example 42, 3-{[5-({[3-(2,6-Dichlorophenyl)-5-(1-methylethyl)-4-isoxazolyl]methyl}oxy)-1H-benzimidazol-1-yl]methyl}benzoic acid]
102 to 1000 nM | CC(C)c1onc(-c2c(Cl)cccc2Cl)c1COc1ccc2c(ccn2S(=O)(=O)c2cccc(C(=O)O)c2)c1 [Example 43, 3-{[5-({[3-(2,6-Dichlorophenyl)-5-(1-methylethyl)-4-isoxazolyl]methyl}oxy)-1H-indol-1-yl]sulfonyl}benzoic acid]
102 to 1000 nM | CC(C)c1onc(-c2c(Cl)cccc2Cl)c1COc1ccc2c(c1)CN(c1cccc(C(=O)O)c1)C2=O [Example 44, 3-[5-({[3-(2,6-Dichlorophenyl)-5-(1-methylethyl)-4-isoxazolyl]methyl}oxy)-1-oxo-1,3-dihydro-2H-isoindol-2-yl]benzoic acid]
